Experimental data published in PubChem BioAssay AID1259407 (Chemical Carcinogenesis Research Information System (CCRIS), 2018).
The source made the active and inactive calls. The rule behind the calls is not given here.

Tested on: CCRIS mutagenicity, Ames/micronucleus/aberration tests
Assay: CCRIS mutagenicity studies
[1] = Test System: AMES SALMONELLA TYPHIMURIUM, Strain/Indicator: TA98, Metabolic Activation: NONE, Method: PREINCUBATION
[2] = Test System: AMES SALMONELLA TYPHIMURIUM, Strain/Indicator: TA100, Metabolic Activation: NONE, Method: PREINCUBATION
[3] = Test System: AMES SALMONELLA TYPHIMURIUM, Strain/Indicator: TA1535, Metabolic Activation: NONE, Method: PREINCUBATION
[4] = Test System: AMES SALMONELLA TYPHIMURIUM, Strain/Indicator: TA98, Metabolic Activation: NONE, Method: STANDARD PLATE

SMILES: O=[N+]([O-])c1cccc2c([N+](=O)[O-])cccc12
- mutagenic call (End Point: IN VITRO CHROMOSOMAL ABERRATIONS, Test System: CHL CELLS, Metabolic Activation: RAT, LIVER, S-9, SODIUM PHENOBARBITAL AND 5,6-BENZOFLAVONE): active; positive (structural changes)
- mutagenic call (Test System: AMES SALMONELLA TYPHIMURIUM, Strain/Indicator: TA98, Metabolic Activation: HAMSTER, LIVER, S-9, AROCLOR 1254 (30%), Method: PREINCUBATION): active; positive
- mutagenic call [1]: active; positive
- mutagenic call (Test System: AMES SALMONELLA TYPHIMURIUM, Strain/Indicator: TA98, Metabolic Activation: RAT LIVER S-9, PHENOBARBITAL AND BETA-NAPHTHOFLAVONE, Method: PREINCUBATION): active; positive
- mutagenic call (Test System: AMES SALMONELLA TYPHIMURIUM, Strain/Indicator: TA98, Metabolic Activation: RAT, LIVER, S-9, AROCLOR 1254 (30%), Method: PREINCUBATION): active; positive
- mutagenic call (Test System: AMES SALMONELLA TYPHIMURIUM, Strain/Indicator: TA100, Metabolic Activation: HAMSTER, LIVER, S-9, AROCLOR 1254 (30%), Method: PREINCUBATION): active; positive
- mutagenic call [2]: active; positive
- mutagenic call (Test System: AMES SALMONELLA TYPHIMURIUM, Strain/Indicator: TA100, Metabolic Activation: RAT LIVER S-9, PHENOBARBITAL AND BETA-NAPHTHOFLAVONE, Method: PREINCUBATION): active; positive
- mutagenic call (Test System: AMES SALMONELLA TYPHIMURIUM, Strain/Indicator: TA100, Metabolic Activation: RAT, LIVER, S-9, AROCLOR 1254 (30%), Method: PREINCUBATION): active; positive
- mutagenic call [3]: inactive; negative
- mutagenic call (Test System: AMES SALMONELLA TYPHIMURIUM, Strain/Indicator: TA1535, Metabolic Activation: RAT LIVER S-9, PHENOBARBITAL AND BETA-NAPHTHOFLAVONE, Method: PREINCUBATION): inactive; negative
- mutagenic call (Test System: AMES SALMONELLA TYPHIMURIUM, Strain/Indicator: TA1537, Metabolic Activation: NONE, Method: PREINCUBATION): active; positive
- mutagenic call (Test System: AMES SALMONELLA TYPHIMURIUM, Strain/Indicator: TA1537, Metabolic Activation: RAT LIVER S-9, PHENOBARBITAL AND BETA-NAPHTHOFLAVONE, Method: PREINCUBATION): active; positive
- mutagenic call (Test System: AMES SALMONELLA TYPHIMURIUM, Strain/Indicator: TA1538, Metabolic Activation: NONE, Method: PREINCUBATION): active; positive
- mutagenic call (Test System: AMES SALMONELLA TYPHIMURIUM, Strain/Indicator: TA1538, Metabolic Activation: RAT LIVER S-9, PHENOBARBITAL AND BETA-NAPHTHOFLAVONE, Method: PREINCUBATION): active; positive
- mutagenic call (Test System: E.COLI, Strain/Indicator: WP2UVRA, Metabolic Activation: NONE, Method: PREINCUBATION): inactive; negative
- mutagenic call (Test System: E.COLI, Strain/Indicator: WP2UVRA, Metabolic Activation: RAT LIVER S-9, PHENOBARBITAL AND BETA-NAPHTHOFLAVONE, Method: PREINCUBATION): active; positive

SMILES: N.N.[Br-].[Br-].[Pt+2]
- mutagenic call [1]: active; positive
- mutagenic call [2]: active; positive

SMILES: Clc1c(Cl)c(Cl)c2c(c1Cl)Oc1c(Cl)c(Cl)c(Cl)c(Cl)c1O2
- mutagenic call (Test System: AMES SALMONELLA TYPHIMURIUM, Strain/Indicator: TA97, Metabolic Activation: HAMSTER, LIVER, S-9, AROCLOR 1254 (10 OR 30%), Method: PREINCUBATION): inactive; negative
- mutagenic call (Test System: AMES SALMONELLA TYPHIMURIUM, Strain/Indicator: TA97, Metabolic Activation: NONE, Method: PREINCUBATION): inactive; negative
- mutagenic call (Test System: AMES SALMONELLA TYPHIMURIUM, Strain/Indicator: TA97, Metabolic Activation: RAT, LIVER, S-9, AROCLOR 1254 (10 OR 30%), Method: PREINCUBATION): inactive; negative
- mutagenic call (Test System: AMES SALMONELLA TYPHIMURIUM, Strain/Indicator: TA98, Metabolic Activation: HAMSTER, LIVER, S-9, AROCLOR 1254 (10 OR 30%), Method: PREINCUBATION): inactive; negative
- mutagenic call [1]: inactive; negative
- mutagenic call (Test System: AMES SALMONELLA TYPHIMURIUM, Strain/Indicator: TA98, Metabolic Activation: RAT, LIVER, S-9, AROCLOR 1254 (10 OR 30%), Method: PREINCUBATION): inactive; negative
- mutagenic call (Test System: AMES SALMONELLA TYPHIMURIUM, Strain/Indicator: TA100, Metabolic Activation: HAMSTER, LIVER, S-9, AROCLOR 1254 (10 OR 30%), Method: PREINCUBATION): inactive; negative
- mutagenic call [2]: inactive; negative
- mutagenic call (Test System: AMES SALMONELLA TYPHIMURIUM, Strain/Indicator: TA100, Metabolic Activation: RAT, LIVER, S-9, AROCLOR 1254 (10 OR 30%), Method: PREINCUBATION): inactive; negative
- mutagenic call (Test System: AMES SALMONELLA TYPHIMURIUM, Strain/Indicator: TA1535, Metabolic Activation: HAMSTER, LIVER, S-9, AROCLOR 1254 (10 OR 30%), Method: PREINCUBATION): inactive; negative
- mutagenic call [3]: inactive; negative
- mutagenic call (Test System: AMES SALMONELLA TYPHIMURIUM, Strain/Indicator: TA1535, Metabolic Activation: RAT, LIVER, S-9, AROCLOR 1254 (10 OR 30%), Method: PREINCUBATION): inactive; negative

SMILES: O=[N+]([O-])c1ccc2c3c(cccc13)-c1cc3ccccc3cc1-2
- mutagenic call [4]: active; positive

SMILES: O=C1CCc2ccc3ccc4ccccc4c3c21
- mutagenic call (Test System: AMES SALMONELLA TYPHIMURIUM, Strain/Indicator: TA100, Metabolic Activation: RAT, LIVER, S-9, AROCLOR 1254, Method: STANDARD PLATE): inactive; negative

SMILES: O=[N+]([O-])c1ccc2ccc3cc4c(c5ccc1c2c35)C=C[C@H](O)[C@H]4O
- mutagenic call (Test System: AMES SALMONELLA TYPHIMURIUM, Strain/Indicator: TA98(1,8-DNP6), Metabolic Activation: NONE): active; positive
- mutagenic call (Test System: AMES SALMONELLA TYPHIMURIUM, Strain/Indicator: TA98(1,8-DNP6), Metabolic Activation: RAT, LIVER, S-9, AROCLOR 1254): active; positive
- mutagenic call (Test System: AMES SALMONELLA TYPHIMURIUM, Strain/Indicator: TA98(NR), Metabolic Activation: NONE): active; positive
- mutagenic call (Test System: AMES SALMONELLA TYPHIMURIUM, Strain/Indicator: TA98(NR), Metabolic Activation: RAT, LIVER, S-9, AROCLOR 1254): active; positive
- mutagenic call (Test System: AMES SALMONELLA TYPHIMURIUM, Strain/Indicator: TA98, Metabolic Activation: NONE): active; positive
- mutagenic call (Test System: AMES SALMONELLA TYPHIMURIUM, Strain/Indicator: TA98, Metabolic Activation: RAT, LIVER, S-9, AROCLOR 1254): active; positive
- mutagenic call (Test System: CHINESE HAMSTER OVARY, Strain/Indicator: CHO-K1-BH4 (HGPRT), Metabolic Activation: NONE): active; positive
- mutagenic call (Test System: CHINESE HAMSTER OVARY, Strain/Indicator: CHO-K1-BH4 (HGPRT), Metabolic Activation: RAT, LIVER, S-9, 3-METHYLCHOLANTHRENE): active; positive

SMILES: Nc1ccc(N(c2ccc3ccccc3c2)c2ccc3ccccc3c2)cc1
- mutagenic call [4]: inactive; negative
- mutagenic call (Test System: AMES SALMONELLA TYPHIMURIUM, Strain/Indicator: TA98, Metabolic Activation: S-9, Method: STANDARD PLATE): inactive; negative
- mutagenic call (Test System: AMES SALMONELLA TYPHIMURIUM, Strain/Indicator: TA100, Metabolic Activation: NONE, Method: STANDARD PLATE): inactive; negative
- mutagenic call (Test System: AMES SALMONELLA TYPHIMURIUM, Strain/Indicator: TA100, Metabolic Activation: S-9, Method: STANDARD PLATE): inactive; negative

SMILES: Nc1ccc(CO)c([N+](=O)[O-])c1
- mutagenic call [1]: active; positive
- mutagenic call (Test System: AMES SALMONELLA TYPHIMURIUM, Strain/Indicator: TA98, Metabolic Activation: RAT, LIVER, S-9, PHENOBARBITAL AND 5,6-BENZOFLAVONE, Method: PREINCUBATION): active; positive
- mutagenic call [2]: active; positive
- mutagenic call (Test System: AMES SALMONELLA TYPHIMURIUM, Strain/Indicator: TA100, Metabolic Activation: RAT, LIVER, S-9, PHENOBARBITAL AND 5,6-BENZOFLAVONE, Method: PREINCUBATION): active; positive

SMILES: C=C(Cl)C=O
- mutagenic call (Test System: AMES SALMONELLA TYPHIMURIUM, Strain/Indicator: TA100, Metabolic Activation: NONE, Method: LIQUID INCUBATION): active; positive
- mutagenic call (Test System: AMES SALMONELLA TYPHIMURIUM, Strain/Indicator: TA100, Metabolic Activation: NONE, Method: PREINCUBATION, LIQUID INCUBATION): active; positive
- mutagenic call (Test System: AMES SALMONELLA TYPHIMURIUM, Strain/Indicator: TA1535, Metabolic Activation: NONE, Method: LIQUID INCUBATION): active; positive
- mutagenic call (Test System: AMES SALMONELLA TYPHIMURIUM, Strain/Indicator: TA1535, Metabolic Activation: NONE, Method: PREINCUBATION, LIQUID INCUBATION): active; positive
